Source: PubChem BioAssay (NCI)
“And” between values parts separate entries of the source, which are not always exact repeats. Equal entries are not always repeated.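 These data come from cells grown in 96-well plates and exposed to compound for 48 hours at five concentrations. GI50 is the concentration that inhibits growth by half. TGI is the concentration that stops growth completely.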

Key:
Experiment in all cases: DTP human tumour cell line panel, 48 h
SR leukemia = test system: SR leukemia
U251 CNS = test system: U251 CNS
RXF 393 renal = test system: RXF 393 renal
IGROV1 ovarian = test system: IGROV1 ovarian
PC-3 prostate = test system: PC-3 prostate
CAKI-1 renal = test system: CAKI-1 renal
SK-MEL-2 melanoma = test system: SK-MEL-2 melanoma
MDA-MB-231 breast = test system: MDA-MB-231 breast
SNB-19 CNS = test system: SNB-19 CNS
K-562 leukemia = test system: K-562 leukemia

COCCOC1=C(Cl)C(=O)c2ccccc2C1=O
GI50 (SR leukemia): 3.17 µM | TGI (SR leukemia): 9.48 µM | GI50 (U251 CNS): 3.14 µM | TGI (U251 CNS): 10 µM | GI50 (RXF 393 renal): 3.31 µM | TGI (RXF 393 renal): 10.2 µM | GI50 (IGROV1 ovarian): 2.62 µM | TGI (IGROV1 ovarian): 6.44 µM | GI50 (PC-3 prostate): 2.18 µM | TGI (PC-3 prostate): 5.55 µM | GI50 (CAKI-1 renal): 2.83 µM | TGI (CAKI-1 renal): 9.83 µM | GI50 (SK-MEL-2 melanoma): 2.71 µM | TGI (SK-MEL-2 melanoma): 9.35 µM | GI50 (MDA-MB-231 breast): 2.81 µM | TGI (MDA-MB-231 breast): 11.7 µM | GI50 (SNB-19 CNS): 4.55 µM | TGI (SNB-19 CNS): 16.8 µM

C(=Nc1nc(SCc2ccccc2)nc2[nH]ncc12)c1cccs1
GI50 (SR leukemia): 18.7 µM | TGI (SR leukemia): 65.3 µM | GI50 (U251 CNS): 43.6 µM | TGI (U251 CNS): > 100 µM | GI50 (RXF 393 renal): 47.1 µM | TGI (RXF 393 renal): > 100 µM | GI50 (IGROV1 ovarian): > 100 µM | TGI (IGROV1 ovarian): > 100 µM | GI50 (PC-3 prostate): 32.6 µM | TGI (PC-3 prostate): > 100 µM | GI50 (CAKI-1 renal): 29.8 µM | TGI (CAKI-1 renal): > 100 µM | GI50 (SK-MEL-2 melanoma): 77.4 µM | TGI (SK-MEL-2 melanoma): > 100 µM | GI50 (MDA-MB-231 breast): 37.3 µM | TGI (MDA-MB-231 breast): > 100 µM | GI50 (SNB-19 CNS): 26.4 µM | TGI (SNB-19 CNS): > 100 µM | GI50 (K-562 leukemia): 35 µM | TGI (K-562 leukemia): > 100 µM

Cc1noc(NC(=O)Nc2ccccc2F)c1C#N
TGI (SR leukemia): > 100 µM | TGI (U251 CNS): > 44.6 µM | TGI (RXF 393 renal): > 100 µM | TGI (IGROV1 ovarian): > 100 µM | TGI (PC-3 prostate): > 41.3 µM | TGI (CAKI-1 renal): > 100 µM | TGI (SK-MEL-2 melanoma): > 54.9 µM | TGI (MDA-MB-231 breast): > 33.5 µM | TGI (SNB-19 CNS): > 50.3 µM | TGI (K-562 leukemia): > 100 µM

CC(=O)O[C@H]1CC2C(C3CC[C@H](C(C)CCC(=O)O)[C@]31C)[C@H](OC(C)=O)C[C@@H]1CC3(CC[C@]21C)OOC1(CCC(C)CC1)OO3 (some centres undefined)
TGI (SR leukemia): 3.82 µM and 3.94 µM | TGI (U251 CNS): 17.2 µM and 3.71 µM | TGI (RXF 393 renal): 27.9 µM and 23.9 µM | TGI (IGROV1 ovarian): 4.64 µM and 2.76 µM | TGI (PC-3 prostate): 17.2 µM and 14.2 µM | GI50 (CAKI-1 renal): 6.75 µM and 2.23 µM | TGI (CAKI-1 renal): 19.1 µM and 6.49 µM | GI50 (SK-MEL-2 melanoma): 10.7 µM and 2.02 µM | TGI (SK-MEL-2 melanoma): 27.2 µM and 5 µM | GI50 (MDA-MB-231 breast): 9.81 µM and 2.79 µM | TGI (MDA-MB-231 breast): 29.2 µM and 7.65 µM | GI50 (SNB-19 CNS): 7.57 µM and 3.57 µM | TGI (SNB-19 CNS): 20.1 µM and 14.7 µM | TGI (K-562 leukemia): 16.8 µM and 6.21 µM

N#CC(C#N)=C/C=C(\Sc1ccc(Cl)cc1)c1ccc(F)cc1
GI50 (SR leukemia): 0.171 µM | TGI (SR leukemia): > 100 µM | GI50 (U251 CNS): 1.23 µM | TGI (U251 CNS): > 34.5 µM | GI50 (RXF 393 renal): 5.36 µM | TGI (RXF 393 renal): > 100 µM | GI50 (IGROV1 ovarian): 2.09 µM | TGI (IGROV1 ovarian): 12.3 µM | GI50 (PC-3 prostate): 0.496 µM | TGI (PC-3 prostate): 6.19 µM | GI50 (CAKI-1 renal): 0.465 µM | TGI (CAKI-1 renal): 2.77 µM | GI50 (SK-MEL-2 melanoma): 4.15 µM | TGI (SK-MEL-2 melanoma): > 63.6 µM | GI50 (MDA-MB-231 breast): 1.84 µM | TGI (MDA-MB-231 breast): 6.25 µM | GI50 (SNB-19 CNS): 5.67 µM | TGI (SNB-19 CNS): 24.9 µM | GI50 (K-562 leukemia): 0.0844 µM | TGI (K-562 leukemia): > 100 µM

OCC1CC[N-]CC1.OCC1CC[N-]CC1.[Cl][Pt+2]([Cl])([Cl])[Cl]
GI50 (SR leukemia): 8.08 µM | GI50 (U251 CNS): 19.6 µM | TGI (U251 CNS): 53 µM | GI50 (IGROV1 ovarian): 25.2 µM | TGI (PC-3 prostate): 73 µM | GI50 (CAKI-1 renal): 20.3 µM | TGI (CAKI-1 renal): 81.5 µM | GI50 (SK-MEL-2 melanoma): 27 µM | TGI (SK-MEL-2 melanoma): 67.3 µM | GI50 (MDA-MB-231 breast): 33.6 µM | GI50 (SNB-19 CNS): 48 µM | GI50 (K-562 leukemia): 35.9 µM

NC(N)=NCCCC(NCc1c2ccccc2nc2ccccc12)C(=O)O (centres undefined)
TGI (SR leukemia): > 83.2 µM | TGI (U251 CNS): > 100 µM | TGI (RXF 393 renal): > 100 µM | TGI (IGROV1 ovarian): > 100 µM | TGI (PC-3 prostate): > 100 µM | TGI (CAKI-1 renal): > 100 µM | TGI (SK-MEL-2 melanoma): > 100 µM | TGI (MDA-MB-231 breast): > 100 µM | TGI (SNB-19 CNS): > 100 µM | TGI (K-562 leukemia): > 89.4 µM

CC(=O)NC1C(O[C@H]2C[C@H]3[C@@H]4CC=C5C[C@@H](O)CC[C@]5(C)[C@H]4CC[C@]3(C)[C@H]2[C@H](C)C(=O)CCC(C)C)OCC(O)C1O (some centres undefined)
GI50 (SR leukemia): 1.56 µM | TGI (SR leukemia): 22.8 µM | GI50 (U251 CNS): 2.34 µM | TGI (U251 CNS): 11.5 µM | GI50 (RXF 393 renal): 0.398 µM | TGI (RXF 393 renal): 1.41 µM | GI50 (IGROV1 ovarian): 3.37 µM | TGI (IGROV1 ovarian): > 42.5 µM | GI50 (PC-3 prostate): 2.05 µM | TGI (PC-3 prostate): 10.3 µM | GI50 (CAKI-1 renal): 1.53 µM | TGI (CAKI-1 renal): 6.75 µM | GI50 (SK-MEL-2 melanoma): 1.35 µM | TGI (SK-MEL-2 melanoma): 4.11 µM | GI50 (MDA-MB-231 breast): 3.29 µM | TGI (MDA-MB-231 breast): 12.4 µM | GI50 (SNB-19 CNS): 3.31 µM | TGI (SNB-19 CNS): 11 µM | GI50 (K-562 leukemia): 1.35 µM | TGI (K-562 leukemia): 5.16 µM
